According to ChEMBL document CHEMBL2150891, “Compounds and Their Use as BACE Inhibitors: Patent Highlight” (ACS Med Chem Lett, 2012):

How the values were obtained:
[1] = molecular target: T1, Beta-secretase 1 (Homo sapiens, UniProt P56817); test: Inhibition of BACE by secreted APPbeta release assay
[2] = molecular target: T1, Beta-secretase 1; test: Inhibition of BACE by TR-FRET assay

T1 sequence (P56817 whole entry): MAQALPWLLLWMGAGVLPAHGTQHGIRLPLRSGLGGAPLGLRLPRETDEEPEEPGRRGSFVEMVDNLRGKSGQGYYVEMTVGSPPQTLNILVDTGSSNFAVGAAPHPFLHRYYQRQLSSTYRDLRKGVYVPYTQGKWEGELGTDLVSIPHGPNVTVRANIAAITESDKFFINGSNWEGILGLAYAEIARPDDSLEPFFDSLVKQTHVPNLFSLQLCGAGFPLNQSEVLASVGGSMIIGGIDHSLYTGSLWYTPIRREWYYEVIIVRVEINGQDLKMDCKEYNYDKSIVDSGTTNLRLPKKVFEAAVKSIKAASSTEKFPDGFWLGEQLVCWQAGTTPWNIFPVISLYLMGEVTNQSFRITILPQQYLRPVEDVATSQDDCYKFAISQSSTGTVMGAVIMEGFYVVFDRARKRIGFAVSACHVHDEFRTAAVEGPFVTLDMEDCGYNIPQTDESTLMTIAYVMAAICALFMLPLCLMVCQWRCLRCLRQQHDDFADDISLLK

IC50 [1]: 2.2 nM
IC50 [2]: 1.4 nM
SMILES: CC#Cc1cncc(-c2ccc3c(c2)C2(N=C(C)C(N)=N2)C2(CCC(OC)CC2)O3)c1 (configuration not stated)
